Source: US9539239B1, “Compositions and methods for treatment of neurodegenerative disease” (priority 2010, dated 2017)

How the values were obtained:
[1] = test system: retinal ganglion cells (RGCs); test: RGC survival in primary retinal ganglion cell culture (high-content screening); assay type: cell-based, mouse and rat; conditions: potency relative to sunitinib; baseline culture with 2.5 μM forskolin
Method: (§1) In this Example, certain compounds were administered to retinal ganglion cells (RGCs) in cell culture to determine the effects of the compounds on neuronal count and neurite growth.
We established a robust high-content screening system combining the immunopanning- or other immunobead-based purification of primary mouse and rat RGCs and automated fluorescence-based imaging analysis (see, e.g., U.S. Patent Publication No. 2007/0185069, incorporated herein by reference). To enhance the assay sensitivity, the culture condition is defined to support a baseline level of RGC viability (20˜60% surviving RGCs after three days in culture) and neurite growth by 2.5 μM forskolin. […]

[2] = test system: retinal ganglion cells (RGCs); test: RGC neurite growth in primary retinal ganglion cell culture (high-content screening); assay type: cell-based, mouse and rat; conditions: potency relative to sunitinib; baseline culture with 2.5 μM forskolin
Method: as §1
We established a robust high-content screening system combining the immunopanning- or other immunobead-based purification of primary mouse and rat RGCs and automated fluorescence-based imaging analysis (see, e.g., U.S. Patent Publication No. 2007/0185069, incorporated herein by reference). To enhance the assay sensitivity, the culture condition is defined to support a baseline level of RGC viability (20˜60% surviving RGCs after three days in culture) and neurite growth by 2.5 μM forskolin.
In addition, certain tested compounds stimulated RGC neurite growth.

[3] = test system: RGC; test: Effect of FLT3 ligand on RGC survival; assay type: cell-based
[4] = cited from earlier work

| Molecule | RGC Survival Activity [1] | also measured |
| --- | --- | --- |
| Cc1[nH]c(/C=C2\C(=O)Nc3ccc([S+](C)[O-])cc32)c(C)c1C(=O)N1CCOCC1 (centres unmarked) | ** (approximately 40-80% as potent as sunitinib) | – |
| Cc1[nH]c(/C=C2\C(=O)Nc3ccc([S+](C)[O-])cc32)c(C)c1C(=O)N1CCN(C)CC1 (centres unmarked) | * (approximately 10-40% as potent as sunitinib) | – |
| C[S+]([O-])c1ccc2c(c1)/C(=C/c1cc3c([nH]1)CC(C)(C)CC3=O)C(=O)N2 (centres unmarked) [Example 2] | *** (at least approximately 80% as potent as sunitinib) | – |
| C[S+]([O-])c1ccc2c(c1)/C(=C/c1cc3c([nH]1)CCCC3=O)C(=O)N2 (centres unmarked) [Example 3] | *** (at least approximately 80% as potent as sunitinib) | – |
| Cc1c([S+](C)[O-])ccc2c1/C(=C/c1cc3c([nH]1)CCCC3)C(=O)N2 (centres unmarked) [Example 5] | * (approximately 10-40% as potent as sunitinib) | Neurite Promotion [2]: ** (approximately 40-80% as potent as sunitinib) |
| C[S+]([O-])c1ccc2c(c1)/C(=C/c1cc3c([nH]1)CCCC3)C(=O)N2 (centres unmarked) [Example 6] | *** (at least approximately 80% as potent as sunitinib) | – |
| CC[S+]([O-])c1ccc2c(c1)/C(=C/c1cc3c([nH]1)CCCC3)C(=O)N2 (centres unmarked) [Example 7] | *** (at least approximately 80% as potent as sunitinib) | – |
| Cc1c(/C=C2\C(=O)Nc3ccc(C(=O)N(C)C)cc32)[nH]c2c1CC(C)(C)CC2 [Example 8] | ** (approximately 40-80% as potent as sunitinib) | – |
| CON(C)C(=O)c1ccc2c(c1)/C(=C/c1[nH]c3c(c1C)C(=O)C(C)(C)CC3)C(=O)N2 [Example 9] | *** (at least approximately 80% as potent as sunitinib) | – |
| CCN(C)C(=O)c1ccc2c(c1)/C(=C/c1[nH]c3c(c1C)C(=O)C(C)(C)CC3)C(=O)N2 [Example 10] | *** (at least approximately 80% as potent as sunitinib) | – |
| CCCCN(C)C(=O)c1ccc2c(c1)/C(=C/c1[nH]c3c(c1C)C(=O)C(C)(C)CC3)C(=O)N2 [Example 11] | ** (approximately 40-80% as potent as sunitinib) | – |
| Cc1c(/C=C2\C(=O)Nc3ccc(C(=O)N4CCCCCC4)cc32)[nH]c2c1C(=O)C(C)(C)CC2 [Example 12] | ** (approximately 40-80% as potent as sunitinib) | – |
| Cc1c(/C=C2\C(=O)Nc3ccc(C(=O)N4CCCC4)cc32)[nH]c2c1C(=O)C(C)(C)CC2 [Example 13] | *** (at least approximately 80% as potent as sunitinib) | – |
| CN(C)C(=O)c1ccc2c(c1)/C(=C/c1cc3c([nH]1)CCCC3=O)C(=O)N2 [Example 14] | *** (at least approximately 80% as potent as sunitinib) | – |
| CN(C)C(=O)c1ccc2c(c1)/C(=C/c1cc3c([nH]1)CC(C)(C)CC3=O)C(=O)N2 [Example 15] | ** (approximately 40-80% as potent as sunitinib) | – |
| Cc1c(/C=C2\C(=O)Nc3ccc(C(=O)N(C)C)cc32)[nH]c2c1C(=O)C(C)(C)CC2 [Example 16] | *** (at least approximately 80% as potent as sunitinib) | – |
| CCN(CC)CCNC(=O)c1c(C)[nH]c(/C=C2\C(=O)Nc3ccc([S+](C)[O-])cc32)c1C (centres unmarked) [Example 17] | *** (at least approximately 80% as potent as sunitinib) | Neurite Promotion [2]: *** (at least approximately 80% as potent as sunitinib) |
| CCN(CC)CCNC(=O)c1c(C)[nH]c(/C=C2\C(=O)Nc3ccc([S+](C)[O-])cc32)c1C (centres unmarked) [Example 18] | *** (at least approximately 80% as potent as sunitinib) | Neurite Promotion [2]: *** (at least approximately 80% as potent as sunitinib) |
| CCN(CC)CCNC(=O)c1c(C)[nH]c(/C=C2\C(=O)Nc3ccc([S+]([O-])CC)cc32)c1C (centres unmarked) [Example 19] | *** (at least approximately 80% as potent as sunitinib) | – |
| CCN(CC)CCNC(=O)c1c(C)[nH]c(/C=C2\C(=O)Nc3ccc(C(=O)N4CCCC4)cc32)c1C [Example 23] | *** (at least approximately 80% as potent as sunitinib) | – |
| CCN(CC)CCNC(=O)c1c(C)[nH]c(/C=C2\C(=O)Nc3ccc(C(=O)N(C)OC)cc32)c1C [Example 24] | *** (at least approximately 80% as potent as sunitinib) | – |
| Cc1[nH]c(/C=C2\C(=O)Nc3ccc(C(=O)N(C)C)cc32)c(C)c1C(=O)NCCN1CCCC1 [Example 25] | *** (at least approximately 80% as potent as sunitinib) | – |
| CCN(CC)CCNC(=O)c1c(C)[nH]c(/C=C2\C(=O)Nc3ccc(C(=O)N(C)C)cc32)c1C [Example 26] | *** (at least approximately 80% as potent as sunitinib) | – |
| FLT3 ligand: RTK ligand; ligand of the receptor tyrosine kinase FLT3 (protein, UniProt P49771 27-235, looked up) Fms-related tyrosine kinase 3 …: TQDCSFQHSPISSDFAVKIRELSDYLLQDYPVTVASNLQDEELCGGLWRLVLAQRWMERLKTVAGSKMQGLLERVNTEIHFVTKCAFQPPPSCLRFVQTNISRLLQETSEQLVALKPWITRQNFSRCLELQCQPDSSTLPPPWSPRPLEATAPTAPQPPLLLLLLLPVGLLLLAAAWCLHWQRTRRRTPRPGEQVPPVPSPQDLLLVEH | – | reduction of RGC survival ([3]; 4 ng/ml (its EC50)): does not do so; reduction of RGC survival ([3]; 16 ng/ml, four times its EC50): 38.3%; EC50 [4]: 4 ng/mL |
